Laboratory results as given in US9650339B2, “Inhibitors of histone demethylases” (Gilead Sciences, Inc., priority 2013, dated 2017).

Legend:
KDM3B (JMJD1B) = target: T1, KDM3B (JMJD1B) (Homo sapiens, UniProt Q7LBC6); assay: Histone lysine demethylase AlphaLISA assay, KDM3B; type: biochemical; conditions: read-out: KDM3B HDME Inhibition IC50
T1 construct: 842-1761; host or cells: Bac (baculovirus system)
T1 sequence (Q7LBC6 842-1761): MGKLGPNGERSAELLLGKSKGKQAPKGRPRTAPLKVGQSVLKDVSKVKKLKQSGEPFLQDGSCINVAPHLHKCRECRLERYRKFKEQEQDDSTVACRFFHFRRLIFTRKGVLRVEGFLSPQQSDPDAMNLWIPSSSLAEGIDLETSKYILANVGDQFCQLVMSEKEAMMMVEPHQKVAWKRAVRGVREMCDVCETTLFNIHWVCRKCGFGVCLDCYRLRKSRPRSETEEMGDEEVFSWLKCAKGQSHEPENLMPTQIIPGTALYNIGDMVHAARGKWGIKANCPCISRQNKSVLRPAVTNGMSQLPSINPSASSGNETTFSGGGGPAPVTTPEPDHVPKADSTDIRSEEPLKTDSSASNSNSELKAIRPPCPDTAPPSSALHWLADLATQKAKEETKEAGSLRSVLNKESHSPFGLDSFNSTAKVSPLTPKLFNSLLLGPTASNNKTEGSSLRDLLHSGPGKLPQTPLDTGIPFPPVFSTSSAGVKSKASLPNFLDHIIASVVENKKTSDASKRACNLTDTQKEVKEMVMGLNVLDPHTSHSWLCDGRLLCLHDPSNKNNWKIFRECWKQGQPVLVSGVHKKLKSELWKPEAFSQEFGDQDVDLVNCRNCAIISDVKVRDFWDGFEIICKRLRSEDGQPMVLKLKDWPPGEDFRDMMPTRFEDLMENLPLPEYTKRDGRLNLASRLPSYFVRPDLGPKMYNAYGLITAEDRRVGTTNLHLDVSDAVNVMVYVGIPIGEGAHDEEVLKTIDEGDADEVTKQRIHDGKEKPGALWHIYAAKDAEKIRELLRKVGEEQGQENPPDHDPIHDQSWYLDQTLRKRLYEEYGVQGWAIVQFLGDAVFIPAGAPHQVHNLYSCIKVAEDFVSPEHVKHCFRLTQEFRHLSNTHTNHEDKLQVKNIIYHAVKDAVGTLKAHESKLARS
How it was run: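 Each enzyme was pre-incubated 10 min in buffer, then 10 min with compound in 3% DMSO solution. The reaction started with biotinylated histone H3 peptide substrate plus 25 μM L-ascorbate and 10 μM α-KG at room temperature. Detection used AlphaLISA acceptor beads, then streptavidin donor beads, in the dark.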

KDM4C = target: T2, KDM4C (Homo sapiens, UniProt Q9H3R0); assay: Histone lysine demethylase immunofluorescence assay, U2OS cells transfected with KDM4C; type: cell-based; conditions: U2OS cells transfected with pCMVHA KDM4C; mark detected H3K9me3; 20 hours
T2 construct: Full length; host or cells: U2OS
T2 sequence (Q9H3R0 1-1056): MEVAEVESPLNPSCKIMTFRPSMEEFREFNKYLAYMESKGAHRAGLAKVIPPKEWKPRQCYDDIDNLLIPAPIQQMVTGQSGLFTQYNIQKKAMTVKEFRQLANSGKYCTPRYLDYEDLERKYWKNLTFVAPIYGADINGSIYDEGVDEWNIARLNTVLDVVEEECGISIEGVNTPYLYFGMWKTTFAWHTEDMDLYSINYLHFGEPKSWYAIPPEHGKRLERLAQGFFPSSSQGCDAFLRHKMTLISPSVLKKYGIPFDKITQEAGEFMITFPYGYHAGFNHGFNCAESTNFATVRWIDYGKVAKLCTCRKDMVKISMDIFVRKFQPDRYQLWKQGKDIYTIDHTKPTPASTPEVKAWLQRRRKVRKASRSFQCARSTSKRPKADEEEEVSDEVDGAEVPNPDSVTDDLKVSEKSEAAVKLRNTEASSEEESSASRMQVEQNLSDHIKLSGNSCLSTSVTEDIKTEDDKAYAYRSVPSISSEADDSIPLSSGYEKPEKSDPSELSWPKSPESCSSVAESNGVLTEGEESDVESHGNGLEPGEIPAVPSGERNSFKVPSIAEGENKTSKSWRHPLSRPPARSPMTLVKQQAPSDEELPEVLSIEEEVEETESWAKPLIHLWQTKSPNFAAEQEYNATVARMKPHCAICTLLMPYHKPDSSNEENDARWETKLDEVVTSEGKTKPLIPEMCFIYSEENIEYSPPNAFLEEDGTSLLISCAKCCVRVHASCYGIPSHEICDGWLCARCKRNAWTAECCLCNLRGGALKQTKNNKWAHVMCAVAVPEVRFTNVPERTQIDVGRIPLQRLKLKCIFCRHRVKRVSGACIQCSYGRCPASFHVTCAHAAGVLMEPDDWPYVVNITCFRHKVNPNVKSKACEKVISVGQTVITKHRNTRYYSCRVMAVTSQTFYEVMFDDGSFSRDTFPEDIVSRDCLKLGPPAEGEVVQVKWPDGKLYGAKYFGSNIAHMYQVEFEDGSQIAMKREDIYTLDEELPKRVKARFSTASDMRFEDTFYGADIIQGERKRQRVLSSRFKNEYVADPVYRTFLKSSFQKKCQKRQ
How it was run: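 U2OS cells were transiently transfected with HA-tagged demethylase and reseeded after 6 h into compound-containing DMEM/10% FBS for 20 h. Cells were fixed in formaldehyde and immunostained for HA and the relevant histone methyl mark, then imaged. IC50 is based on mean mark staining in HA+ transfected cells.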

Work on `CN(C)CCCCNCc1cc(CN)ccn1` [Compound 2, [2-({[4-(dimethylamino)butyl]-amino}methyl)pyridin-4-yl]methanamine] yielded an IC50 (KDM3B (JMJD1B)) greater than 2500 nM and an IC50 (KDM4C) of 250 to 2500 nM.

Compound `CN(C)CCNCc1ccnc(CNCCCN(C)Cc2ccccc2)c1` [Compound 18, benzyl[3-({[4-({[2-(dimethylamino)ethyl]-amino}methyl)pyridin-2-yl]methyl}-amino)propyl]-methylamine] has an IC50 (KDM3B (JMJD1B)) greater than 2500 nM.

`COCCNCc1ccnc(CNCCCN(C)Cc2ccccc2)c1` [Compound 19, benzyl(3-{[(4-{[(2-methoxyethyl)amino]-methyl}pyridin-2-yl)methyl]amino}-propyl)methylamine] was tested, and the IC50 (KDM3B (JMJD1B)) was greater than 2500 nM and the IC50 (KDM4C) was greater than 2500 nM.

`COc1ccccc1CN1CCC(NC(=O)CNCc2cc(CNC3CC3)ccn2)CC1` [Compound 20, 2-[({4-[(cyclopropylamino)-methyl]pyridin-2-yl}methyl)amino]-N-{1-[(2-methoxyphenyl)methyl]-piperidin-4-yl}acetamide] gave an IC50 (KDM3B (JMJD1B)) greater than 2500 nM and an IC50 (KDM4C) greater than 2500 nM.

Compound `CCN(CCN(C)C)C(=O)CN(Cc1cc(CNC(=O)C(F)(F)F)ccn1)C(=O)C(F)(F)F` [Compound 26, N-[(2-{[N-({[2-(dimethylamino)ethyl]-(ethyl)carbamoyl}-methyl)-2,2,2-trifluoroacetamido]-methyl}pyridin-4-yl)methyl]-2,2,2-trifIuoroacetamide] has an IC50 (KDM4C) of 250 to 2500 nM.

Compound `COC(=O)CNCc1cc(/C=N/C2CC2)ccn1` [Compound 59, methyl 2-[({4-[N-cyclopropyl-carboximidoyl]pyridin-2-yl}methyl)amino]-acetate] has an IC50 (KDM3B (JMJD1B)) greater than 2500 nM and an IC50 (KDM4C) greater than 2500 nM.

With `CCN(CC)CCCCNCc1cc(C2NCCCN2C)ccn1` (stereo not drawn) [Compound 68, [4-(diethylamino)butyl]({[4-(1-methyl-1,3-diazinan-2-yl)pyridin-2-yl]methyl})amine] the IC50 (KDM4C) was 250 to 2500 nM.

Work on `O=Cc1ccnc(CNCCCCN(Cc2ccccc2)C2CC2)c1` [Compound 109, 2-[({4-[benzyl-(cyclopropyl)amino]-butyl}amino)methyl]-pyridine-4-carbaldehyde] yielded an IC50 (KDM3B (JMJD1B)) greater than 2500 nM and an IC50 (KDM4C) greater than 2500 nM.

With `O=Cc1ccnc(CNCC(=O)NC2CCN(Cc3ccccc3)C2)c1` (stereo not drawn) [Compound 113, N-(1-benzylpyrrolidin-3-yl)-2-{[(4-formylpyridin-2-yl)methyl]amino}-acetamide] the IC50 (KDM3B (JMJD1B)) was greater than 2500 nM and the IC50 (KDM4C) was greater than 2500 nM.
